Laboratory results as given in ChEMBL document CHEMBL2073926, “Cloning and functional expression of a mouse liver organic cation transporter” (Hepatology, 1999).

Key:
[1] = biological target: T1, Solute carrier family 22 member 1 (Mus musculus, UniProt O08966); experiment: in vitro; conditions: xenopus laevis, probe TEA (140 uM)
T1 sequence (O08966 whole entry): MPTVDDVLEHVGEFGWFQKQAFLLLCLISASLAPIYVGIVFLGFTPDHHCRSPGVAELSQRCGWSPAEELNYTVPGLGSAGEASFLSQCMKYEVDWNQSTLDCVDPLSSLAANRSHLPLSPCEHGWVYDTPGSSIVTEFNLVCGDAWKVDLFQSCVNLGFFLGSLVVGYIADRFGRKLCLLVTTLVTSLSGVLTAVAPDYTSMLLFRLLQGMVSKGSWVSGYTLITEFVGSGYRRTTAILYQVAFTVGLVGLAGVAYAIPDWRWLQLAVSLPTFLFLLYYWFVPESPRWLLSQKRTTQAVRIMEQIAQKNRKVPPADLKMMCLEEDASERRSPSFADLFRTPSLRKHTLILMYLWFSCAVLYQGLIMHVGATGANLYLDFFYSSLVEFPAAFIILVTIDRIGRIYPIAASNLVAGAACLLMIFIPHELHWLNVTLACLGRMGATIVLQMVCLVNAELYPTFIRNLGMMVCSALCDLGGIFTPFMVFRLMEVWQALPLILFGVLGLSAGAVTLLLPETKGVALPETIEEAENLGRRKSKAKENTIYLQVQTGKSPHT
Description: TP_TRANSPORTER: inhibition of TEA uptake (TEA: 140 uM, Thiamine: 1000 uM) in Xenopus laevis oocytes

[2] = biological target: T1, Solute carrier family 22 member 1; experiment: TP_TRANSPORTER: inhibition of TEA uptake (TEA: 140 uM, Procainamide: 10000 uM) in Xenopus laevis oocytes; format: functional, cell-based, Oocyte; set-up: scale not given: the % may be the effect or the level left; conditions: probe TEA (140 uM), read-out: Activity
[3] = substrate: CC[N+](CC)(CC)CC; experiment: cells, lysate or membranes named

With `Cc1ncc(C[n+]2csc(CCO)c2C)c(N)n1` [THIAMINE ION] the activity at 1000 µM [1] was 12.7%.

`CCN(CC)CCNC(=O)c1ccc(N)cc1` [PROCAINAMIDE] showed an activity at 10000 uM [2] of 30.1%.

B1: Solute carrier family 22 member 1 (Mus musculus) (protein)
chain: MPTVDDVLEHVGEFGWFQKQAFLLLCLISASLAPIYVGIVFLGFTPDHHCRSPGVAELSQRCGWSPAEELNYTVPGLGSAGEASFLSQCMKYEVDWNQSTLDCVDPLSSLAANRSHLPLSPCEHGWVYDTPGSSIVTEFNLVCGDAWKVDLFQSCVNLGFFLGSLVVGYIADRFGRKLCLLVTTLVTSLSGVLTAVAPDYTSMLLFRLLQGMVSKGSWVSGYTLITEFVGSGYRRTTAILYQVAFTVGLVGLAGVAYAIPDWRWLQLAVSLPTFLFLLYYWFVPESPRWLLSQKRTTQAVRIMEQIAQKNRKVPPADLKMMCLEEDASERRSPSFADLFRTPSLRKHTLILMYLWFSCAVLYQGLIMHVGATGANLYLDFFYSSLVEFPAAFIILVTIDRIGRIYPIAASNLVAGAACLLMIFIPHELHWLNVTLACLGRMGATIVLQMVCLVNAELYPTFIRNLGMMVCSALCDLGGIFTPFMVFRLMEVWQALPLILFGVLGLSAGAVTLLLPETKGVALPETIEEAENLGRRKSKAKENTIYLQVQTGKSPHT
In the case of B1, the Km [3] is reported as 38 µM.
